Three compounds from US20140018418A1 (priority 2007, published 2014) can be followed below.

Assay [1] deals with A/Hanoi/UT30408(clone 7)/2005 (H5N1). Set-up: species or system mice (Balb/c). As to conditions: mouse, in vivo.
In assay [2] the test system is H5N1 influenza virus A/Hanoi/30408/2005 (clone 7), oseltamivir sensitive strain. The assay can be described thus: microbe, parasite or virus in culture. Format: cell-based.

Where two headings read alike, the source gives them in different places.

“5-Acetamido-4-guanidino-9-O-octanoyl-2,3,4,5-tetradeoxy-7-O-methyl-D-glycero-D-galacto-non-2-enopyranosoic acid [Compound of Preparation Example 1]”: in assay [1], the “number of mice surviving, Day 10” value is 7. On to `CO[C@@H]([C@@H]1OC(C(=O)O)=C[C@H](NC(=N)N)[C@H]1NC(C)=O)[C@H](O)CO` [Compound of Preparation Example 2, 5-Acetamido-4-guanidino-2,3,4,5-tetradeoxy-7-O-methyl-D-glycero-D-galacto-non-2-enopyranosoic acid], for which the IC50 in assay [2] (Influenza A virus, H5N1, MDCK, read-out: Viral Proliferation Inhibitory Activity (IC50, nM)) came to 0.43 nM.

`CC(=O)N[C@H]1[C@H]([C@H](O)[C@H](O)CO)OC(C(=O)O)=C[C@@H]1N=C(N)N` [Zanamivir, reference compound]: the IC50 in assay [2] (read-out: Viral Proliferation Inhibitory Activity (IC50)) is 3.3 nM.
